Data: US20250339399A1, “SUPRAMOLECULAR SELF-ASSEMBLY SYSTEM” (Beijing Creatron Institute of Pharmaceutical Research Co., …, priority 2022, published 2025)
Read-outs that look alike come from different tables or passages of the source. Values belong to the compound of their own block, whether it stands above or below them.

What was measured:
[1] = cited from earlier work; for LogP / Sol: natural flavonoids (chalcone, dihydrochalcone class)
[2] = Binary supramolecular self-assembly systems of polymer and target: guest concentration over incubation time (Comparative Example 2); format: physicochemical
Procedure: Experiments were conducted according to the steps in Comparative Example 1, and quantitative analysis was carried out using the analytical method for each target to investigate the regulation ability […] stacking.

[3] = cited from earlier work
[4] = Binary (carrier), ternary and quaternary supramolecular self-assembly systems of polymer, carrier building block and target: guest concentration over incubation time (Examples 1-56); format: physicochemical; conditions: 6 h
In short: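 Targets were incubated at 37 °C in pH 2.0–7.4 buffers with 0.5% polymer alone or with carrier building blocks, after 0.5 h sonication for ternary systems, and shaken at 200 rpm. Samples at 0.5–6 h were centrifuged and diluted ≥10-fold, and dissolved target was quantified by HPLC; surfactant was added if needed.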

[5] = Guest molecule concentration after incubation in initial medium without polymer (Comparative Example 1); format: physicochemical; conditions: 37° C., pH 4.5 acetate buffer
In short: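 Dissolved guest content measured by HPLC of centrifuged supernatants (37° C., 13000 rpm, 5 min) sampled at 0.5 h, 3 h and 6 h. Incubation was polymer-free at 37° C.±0.5° C. in buffers of pH 2.0-7.4; nominal loading was set by maximum clinical dose.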

[6] = parent flavonoid of the class, no unit printed in the heading

SMILES: O=C(CCc1ccc(O)c(O)c1)c1c(O)cc(O)cc1O[C@@H]1O[C@H](CO)[C@@H](O)[C@H](O)[C@H]1O [3-hydroxyphloretin 2′-glucoside]
- LogP ([1]; Table 1 basic information): 0.67
- Sol ([1]; Table 1 basic information): 11.65 mg/mL

SMILES: O=C(CCc1ccc(O)c(O)c1)c1c(O)cc(O)cc1O [3-hydroxyphloretin, 3-(3,4-dihydroxyphenyl)-1-(2,4,6-trihydroxyphenyl)propan-1-one]
- Sol ([1]; Table 1 basic information): 8.59 mg/mL

SMILES: O=C(CCc1ccc(O)c(O)c1)c1c(O)cc(O)c([C@@H]2O[C@H](CO)[C@@H](O)[C@H](O)[C@H]2O)c1O [Aspalathin, 3-(3,4-dihydroxyphenyl)-1-{2,4,6-trihydroxy-3-[3,4,5-trihydroxy-6-(hydroxymethyl)oxo-2-yl]phenyl]propan-1-one]
- LogP ([1]; Table 1 basic information): 0.83
- Sol ([1]; Table 1 basic information): 36.12 mg/mL

SMILES: CC1(C)[C@@H](O[C@H]2O[C@H](C(=O)O)[C@@H](O)[C@H](O)[C@H]2O[C@@H]2O[C@H](C(=O)O)[C@@H](O)[C@H](O)[C@H]2O)CC[C@]2(C)[C@H]3C(=O)C=C4[C@@H]5C[C@@](C)(C(=O)O)CC[C@]5(C)CC[C@@]4(C)[C@]3(C)CC[C@@H]12 [Glycyrrhizic acid, glycyrrhizic acid]
- Solubility ([1]; pH > 5.0): pH > 5.0: 159 mg/ml

SMILES: COc1cc(-c2oc3cc(O)cc(O)c3c(=O)c2O)ccc1O [Isorhamnetin]
- Intrinsic solubility (value in the class heading) ([1]; parent flavonoid of the class, Table 1 basic information): Isorhamnetin derivatives (0.45 mg/ml)

SMILES: O=c1c(O)c(-c2ccc(O)cc2)oc2cc(O)cc(O)c12 [Kaempferol, kaempferol]
- solubility value given in Table 1 (basic information of natural flavonoids) [1, 6]: Kaempferol (520-18-3) derivatives-0.40

SMILES: O=c1cc(-c2ccc(O)c(O)c2)oc2cc(O)cc(O)c12 [Luteolin]
- solubility value given in Table 1 (basic information of natural flavonoids) [1, 6]: Luteolin (CAS: 491-70-3) derivatives-0.40

SMILES: O=c1c(O)c(-c2cc(O)c(O)c(O)c2)oc2cc(O)cc(O)c12 [Myricetin]
- solubility value given in Table 1 (basic information of natural flavonoids) ([1]; parent flavonoid of the class, value follows the class name): Myricetin (529-44-2) derivatives −3.14 mg/ml

SMILES: C[C@@H]1O[C@@H](O[C@H]2[C@H](Oc3cc(O)c(C(=O)CCc4ccc(O)cc4)c(O)c3)O[C@H](CO)[C@@H](O)[C@@H]2O)[C@H](O)[C@H](O)[C@H]1O [Naringin dihydrochalcone, naringin dihydrochalcone]
- LogP ([1]; Table 1 basic information): 0.90
- Sol ([1]; Table 1 basic information): 6.78 mg/mL

SMILES: C[C@@H]1O[C@@H](O[C@H]2[C@H](Oc3cc(O)c(C(=O)CCc4ccc(O)c(O)c4)c(O)c3)O[C@H](CO)[C@@H](O)[C@@H]2O)[C@H](O)[C@H](O)[C@H]1O [Neoeriocitrin dihydrochalcone, 1-[4-[(2S,3R,4S,5S,6R)-4,5-dihydroxy-6-(hydroxymethyl)-3-[(2S,3R,4R,5R,6S)-3,4,5-trihydroxy-6-methoxy-2-yl]oxy-2-yl]oxy-2,6-dihydroxyphenyl]-3-(3,4-dihydroxyphenyl)propan-1-one]
- Sol ([1]; Table 1 basic information): 21.89 mg/mL

SMILES: COc1ccc(CCC(=O)c2c(O)cc(O[C@@H]3O[C@H](CO)[C@@H](O)[C@H](O)[C@H]3O[C@@H]3O[C@@H](C)[C@H](O)[C@@H](O)[C@H]3O)cc2O)cc1O [Neosperidin dihydrochalcone, neohesperidin dihydrochalcone]
- Sol ([1]; Table 1 basic information): 104.87 mg/mL

SMILES: O=C(CCc1ccc(O)cc1)c1c(O)cc(O)cc1O [Phloretin, 3-(4-hydroxyphenyl)-1-(2,4,6-trihydroxyphenyl)propan-1-one]
- Sol ([1]; Table 1 basic information): 3.07 mg/mL

SMILES: O=C(CCc1ccc(O)cc1)c1c(O)cc(O)cc1O[C@@H]1O[C@H](CO)[C@@H](O)[C@H](O)[C@H]1O [Phloridzin, 1-[2,4-dihydroxy-6-[(2S,3R,4S,5S,6R)-3,4,5-trihydroxy-6-(hydroxymethyl)oxo-2-yl]oxophenyl]-3-(4-hydroxyphenyl)propan-1-one]
- Sol ([1]; Table 1 basic information): 3.89 mg/mL

SMILES: O=c1c(O)c(-c2ccc(O)c(O)c2)oc2cc(O)cc(O)c12 [Quercetin]
- Intrinsic solubility ([1]; parent flavonoid of the class, Table 1 basic information, unit not given): Quercetin (CAS 117-39-5) derivatives EUF (Intrinsic solubility: 1.11)

SMILES: C=C1C[C@@]23CC[C@H]4[C@@](C)(CCC[C@@]4(C)C(=O)O[C@@H]4O[C@H](CO)[C@@H](O)[C@H](O)[C@H]4O)[C@@H]2CC[C@]1(O[C@@H]1O[C@H](CO)[C@@H](O)[C@H](O[C@@H]2O[C@H](CO)[C@@H](O)[C@H](O)[C@H]2O)[C@H]1O[C@@H]1O[C@H](CO)[C@@H](O)[C@H](O)[C@H]1O)C3 [Rebaudioside A]
- Intrinsic solubility [1]: Intrinsic solubility: 288.8 mg/ml

SMILES: C=C1C[C@@]23CC[C@H]4[C@@](C)(CCC[C@@]4(C)C(=O)O)[C@@H]2CC[C@]1(O[C@@H]1O[C@H](CO)[C@@H](O)[C@H](O[C@@H]2O[C@H](CO)[C@@H](O)[C@H](O)[C@H]2O)[C@H]1O[C@@H]1O[C@H](CO)[C@@H](O)[C@H](O)[C@H]1O)C3 [Rebaudioside B, rebaudioside B]
- Intrinsic solubility [1]: Intrinsic solubility: 7.98 mg/ml

SMILES: C=C1C[C@@]23CC[C@H]4[C@@](C)(CCC[C@@]4(C)C(=O)O[C@@H]4O[C@H](CO)[C@@H](O)[C@H](O)[C@H]4O)[C@@H]2CC[C@]1(O[C@@H]1O[C@H](CO)[C@@H](O)[C@H](O[C@@H]2O[C@H](CO)[C@@H](O)[C@H](O)[C@H]2O)[C@H]1O[C@@H]1O[C@@H](C)[C@H](O)[C@@H](O)[C@H]1O)C3 [Rebaudioside C, rebaudioside C]
- Intrinsic solubility [1]: Intrinsic solubility: 72.63 mg/ml

SMILES: C=C1C[C@@]23CC[C@H]4[C@@](C)(CCC[C@@]4(C)C(=O)O[C@@H]4O[C@H](CO)[C@@H](O)[C@H](O)[C@H]4O)[C@@H]2CC[C@]1(O[C@@H]1O[C@H](CO)[C@@H](O)[C@H](O)[C@H]1O)C3 [Rubusoside, rubusoside]
- Intrinsic solubility [1]: Intrinsic solubility: 0.39 mg/ml

SMILES: O=C(CCc1ccc(O)c(O)c1)c1c(O)cc(O[C@@H]2O[C@H](CO)[C@@H](O)[C@H](O)[C@H]2O)cc1O [Sieboldin, 1-(2,6-dihydroxy-4-{[3,4,5-trihydroxy-6-(hydroxymethyl)oxo-2-yl]oxy}phenyl)-3-(3,4-dihydroxyphenyl)propan-1-one]
- LogP ([1]; Table 1 basic information): 1.32
- Sol ([1]; Table 1 basic information): 11.65 mg/mL

SMILES: C=C1C[C@@]23CC[C@H]4[C@@](C)(CCC[C@@]4(C)C(=O)O[C@@H]4O[C@H](CO)[C@@H](O)[C@H](O)[C@H]4O)[C@@H]2CC[C@]1(O[C@@H]1O[C@H](CO)[C@@H](O)[C@H](O)[C@H]1O[C@@H]1O[C@H](CO)[C@@H](O)[C@H](O)[C@H]1O)C3 [Stevioside]
- Intrinsic solubility [1]: Intrinsic solubility: 6.7 mg/ml

- Concentration of the target in the solution measured after different incubation time ([2]; binary system with 0.5% polymer 101, incubation 0.5 h): 224.0 µg/mL
- Concentration of the target in the solution measured after different incubation time ([2]; binary system with 0.5% polymer 101, incubation 3 h): 88.8 µg/mL
- Concentration of the target in the solution measured after different incubation time ([2]; binary system with 0.5% polymer 101, incubation 6 h): 161.3 µg/mL
- Concentration of the target in the solution measured after different incubation time ([2]; binary system with 0.5% polymer 102, incubation 0.5 h): 63.4 µg/mL
- Concentration of the target in the solution measured after different incubation time ([2]; binary system with 0.5% polymer 102, incubation 3 h): 60.3 µg/mL
- Concentration of the target in the solution measured after different incubation time ([2]; binary system with 0.5% polymer 102, incubation 6 h): 55.7 µg/mL
- Concentration of the target in the solution measured after different incubation time ([2]; binary system with 0.5% polymer 103, incubation 0.5 h): 46.8 µg/mL
- Concentration of the target in the solution measured after different incubation time ([2]; binary system with 0.5% polymer 103, incubation 3 h): 58.7 µg/mL
- Concentration of the target in the solution measured after different incubation time ([2]; binary system with 0.5% polymer 103, incubation 6 h): 6.0 µg/mL
- Concentration of the target in the solution measured after different incubation time ([2]; binary system with 0.5% polymer 106, incubation 0.5 h): 78.6 µg/mL
- Concentration of the target in the solution measured after different incubation time ([2]; binary system with 0.5% polymer 106, incubation 3 h): 65.2 µg/mL
- Concentration of the target in the solution measured after different incubation time ([2]; binary system with 0.5% polymer 106, incubation 6 h): 5.2 µg/mL
- Concentration of the target in the solution measured after different incubation time ([2]; binary system with 0.5% polymer 107, incubation 0.5 h): 68.7 µg/mL
- Concentration of the target in the solution measured after different incubation time ([2]; binary system with 0.5% polymer 107, incubation 3 h): 62.8 µg/mL
- Concentration of the target in the solution measured after different incubation time ([2]; binary system with 0.5% polymer 107, incubation 6 h): 13.2 µg/mL
- Concentration of guest molecule in solution ([4]; ternary: 0.25% 102H + 307): 161.3 µg/mL
- Concentration of guest molecule in solution ([4]; ternary: 0.25% 102H + 308): 219.1 µg/mL
- Concentration of guest molecule in solution ([4]; ternary: 0.25% 102H + 320): 328.9 µg/mL
- Concentration of guest molecule in solution ([4]; ternary: 0.25% 102H + 321): 337.2 µg/mL
- Concentration of guest molecule measured after different incubated time ([5]; 0.5 h): 77.4 µg/mL
- Concentration of guest molecule measured after different incubated time ([5]; 3 h): 8.2 µg/mL
- Concentration of guest molecule measured after different incubated time ([5]; 6 h): 17.3 µg/mL
SMILES: C=CC[C@@H]1/C=C(\C)C[C@H](C)C[C@H](OC)[C@H]2O[C@@](O)(C(=O)C(=O)N3CCCC[C@H]3C(=O)O[C@H](/C(C)=C/[C@@H]3CC[C@@H](O)[C@H](OC)C3)[C@H](C)[C@@H](O)CC1=O)[C@H](C)C[C@@H]2OC [Tacrolimus]
- LogP [3]: LogP 5.59

SMILES: CC(=O)O[C@H]1[C@H](Oc2cc(O)c(C(=O)CCc3ccc(O)cc3)c(O)c2)O[C@H](CO)[C@@H](O)[C@@H]1O [Trilobatin 2″-acetate, [(2S,3R,4S,5S,6R)-(R)-2-[3,5-dihydroxy-4-[3-(4-hydroxyphenyl)propionyl]phenoxy]-4,5-dihydroxy-6-(hydroxymethyl)oxy-3-yl]acetate]
- LogP ([1]; Table 1 basic information): 2.07
- Sol ([1]; Table 1 basic information): 2.08 mg/mL

SMILES: O=C(CCc1ccc(O)cc1)c1c(O)cc(O[C@@H]2O[C@H](CO)[C@@H](O)[C@H](O)[C@H]2O)cc1O [Trilobatin, trilobatin]
- Sol ([1]; Table 1 basic information): 3.89 mg/mL
